# “And” between values parts separate entries of the source, which are not always exact repeats. Equal values may be shown once.
# Tests used:
# [1] = tested on: 4VO rat model; test: Histology, living neurons in CA1 region of hippocampus after 4VO; assay type: in vivo; conditions: 33 days after insult
# Procedure: The rats were anesthetized using ketamine (90 mg/kg) and xylazine sodium ([…]), as described earlier (Meilin et al., 2014). The first cervical vertebrata was exposed and the vertebral arteries were permanently occluded by electrocauterization. The common carotid arteries were isolated through a ventral midline neck incision and lifted using a 4.0 silk suture ligature, placed around them.
# Twenty-four hours post vertebral arterial occlusion, the animals were reanesthetized using isoflurane. The common carotid arteries were exposed and occluded using microaneurysm clips for 15 minutes. After removing the clips reperfusion occurred. The skin of the incision at the neck was sutured using 4-0 silk suture. During the operation animal's core temperature was monitored using a rectal probe (Model 400; YSI Inc., Yellow Springs, Ohio, USA) connected to a thermometer (Model 8402-00; Cole-Parmer Instrument Co. Ltd, London, UK). The ischemic insult was initiated when a rectal temperature of 37-38° C. was achieved, and this temperature was maintained throughout the procedure using a heating mattress.
# During the acclimatization period rats were randomly assigned to experimental groups. The animals were subjected to 4VO per cage or one rat per cage was subjected to HI. Rats received either vehicle (normal saline at pH 3.8-4.0) or 2-IB (1.1 mg/kg, 3.3 mg/kg, 10 mg/kg and 30 mg/kg dissolved in 5 ml/kg normal saline at pH 3.8-4.0). Each dosing group was kept in separate cages to avoid cross-contamination by consuming stools during the study period. The experimental groups were as follows.
# Rats were sacrificed at 33 days after the insult with an overdose of pentobarbital sodium (100 mg/kg i.p.). Histological analysis was performed in at least 9 rats for each group. The brains of the other 3 rats per group were snap frozen in liquid nitrogen and were stored for future analysis. The brain was perfused via the left ventricle with heparinised normal saline to remove the excess of blood from the brain. Afterwards the brain was perfused with 4% paraformaldehyde phosphate-buffered saline. The whole brain was removed and immersed in formaldehyde for at least another 72 hours. Brains were embedded in paraffin. Coronal sections ([…]) were cut at approximately 3.3 mm from the bregma and stained with hematoxylin-eosin. Sections were scored in a blinded way for living neurons in the right and left part of the CA1 region of the hippocampus, the most damaged area in this model of global ischemia. This was also considered a secondary outcome parameter.
# [2] = Pharmacokinetics in adults after out of hospital cardiac arrest (Example 5B); assay type: in vivo, human; design: Obs. AUCinf (based on weight): unit not given here
# Procedure: Namely, a first cohort of eight patients received 2-IB in a dose of 0.055 mg/kg/dose every 4 hours iv, 6 times in total (part A; i.e., 0.33 mg/kg/day).
# The eight adults that suffered an out of hospital cardiac arrest were treated with 2-IB as a 15-minute IV infusion every 4 hours for 6 administrations. Target temperature management was used to maintain body temperature of 36.0 (median).
# Models were generated in order to determine the impact of dose adjustments and variability of AUC.
# An exploratory covariate analysis was performed looking at body weight, age, eGFR, SeCre, and Core temperature.
# [3] = Table 4, basic model, Max of 8 patients
# [4] = Table 4, basic model, Mean of 8 patients
# [5] = Table 4, basic model, Median of 8 patients
# [6] = Table 4, basic model, Min of 8 patients
# [7] = Table 4, basic model, OHCA patients, 0.055 mg/kg/dose iv every 4 hours x6, individual patient (ID 1-8), 0.055 mg/kg
# [8] = Table 5, covariate model with Crea0, Max of 8 patients
# [9] = Table 5, covariate model with Crea0, Mean of 8 patients
# [10] = Table 5, covariate model with Crea0, Median of 8 patients
# [11] = Table 5, covariate model with Crea0, Min of 8 patients
# [12] = Table 5, covariate model with Crea0, OHCA patients, 0.055 mg/kg/dose iv every 4 hours x6, individual patient (ID 1-8), 0.055 mg/kg
# [13] = Table 9, eGFR0 (eGFR at baseline) model, OHCA patients, 0.055 mg/kg/dose iv every 4 hours x6, individual patient (ID 1-8), 0.055 mg/kg
# [14] = Table 9, eGFR0 model, Max of 8 patients
# [15] = Table 9, eGFR0 model, Mean of 8 patients
# [16] = Table 9, eGFR0 model, Median of 8 patients
# [17] = Table 9, eGFR0 model, Min of 8 patients
# [18] = exploratory covariate analysis, 8 OHCA patients
structure (smiles),measurement,setting,value
"N=C1N[C@H]2[C@H](CS[C@H]2CCCCC(=O)O)N1 [2-IB, 2-iminobiotin]",surviving cells in the CA1 region,[1]; 1.1 mg/kg/dose s.c.,29±34
same,surviving cells in the CA1 region,[1]; 3.3 mg/kg/dose s.c.,71±61
same,surviving cells in the CA1 region,[1]; 10 mg/kg/dose s.c.,63±54
same,surviving cells in the CA1 region,[1]; 30 mg/kg/dose s.c.,50±51
same,AUC cumul.,[2]; [3],5613 ng·h/mL
same,AUCinf,[2]; [3],1242 ng·h/mL
same,CL,[2]; [3],22.3 L/h
same,V,[2]; [3],33.6 L
same,VSS,[2]; [3],43.5 L
same,thalf,[2]; [3],6.3 h
same,AUC cumul.,[2]; [4],3238 ng·h/mL
same,AUCinf,[2]; [4],625 ng·h/mL
same,CL,[2]; [4],11.7 L/h
same,V,[2]; [4],14.9 L
same,VSS,[2]; [4],24.9 L
same,thalf,[2]; [4],2.5 h
same,AUC cumul.,[2]; [5],2777 ng·h/mL
same,AUCinf,[2]; [5],478 ng·h/mL
same,CL,[2]; [5],9.5 L/h
same,V,[2]; [5],12.7 L
same,VSS,[2]; [5],22.7 L
same,thalf,[2]; [5],1.6 h
same,AUC cumul.,[2]; [6],1236 ng·h/mL
same,AUCinf,[2]; [6],209 ng·h/mL
same,CL,[2]; [6],4.9 L/h
same,V,[2]; [6],5.0 L
same,VSS,[2]; [6],14.9 L
same,thalf,[2]; [6],1.0 h
same,AUC cumul.,[2]; [7],5613 ng·h/mL and 4680 ng·h/mL and 3521 ng·h/mL and 5386 ng·h/mL and 1858 ng·h/mL and 2032 ng·h/mL and 1236 ng·h/mL and 1577 ng·h/mL
same,AUCinf,[2]; [7],1152 ng·h/mL and 860 ng·h/mL and 612 ng·h/mL and 1242 ng·h/mL and 315 ng·h/mL and 343 ng·h/mL and 209 ng·h/mL and 265 ng·h/mL
same,CL,[2]; [7],6.4 L/h and 5.8 L/h and 7.6 L/h and 4.9 L/h and 11.4 L/h and 18.3 L/h and 22.3 L/h and 16.7 L/h
same,V,[2]; [7],24.3 L and 11.3 L and 7.3 L and 33.6 L and 5.0 L (2×) and 14.1 L and 19.0 L
same,VSS,[2]; [7],34.3 L and 21.3 L and 17.3 L and 43.5 L and 15.0 L and 24.1 L and 28.9 L and 14.9 L
same,thalf,[2]; [7],3.9 h and 2.8 h and 1.9 h and 6.3 h and 1.3 h and 1.2 h (2×) and 1.0 h
same,AUC cumul.,[2]; [8],5934 ng·h/mL
same,AUCinf,[2]; [8],1235 ng·h/mL
same,CL,[2]; [8],17.9 L/h
same,V,[2]; [8],34.1 L
same,VSS,[2]; [8],43.4 L
same,thalf,[2]; [8],5.4 h
same,AUC cumul.,[2]; [9],3226 ng·h/mL
same,AUCinf,[2]; [9],614 ng·h/mL
same,CL,[2]; [9],11.0 L/h
same,V,[2]; [9],15.4 L
same,VSS,[2]; [9],24.7 L
same,thalf,[2]; [9],2.3 h
same,AUC cumul.,[2]; [10],2405 ng·h/mL
same,AUCinf,[2]; [10],408 ng·h/mL
same,CL,[2]; [10],10.2 L/h
same,V,[2]; [10],13.2 L
same,VSS,[2]; [10],22.5 L
same,thalf,[2]; [10],1.5 h
same,AUC cumul.,[2]; [11],1615 ng·h/mL
same,AUCinf,[2]; [11],271 ng·h/mL
same,CL,[2]; [11],5.6 L/h
same,V,[2]; [11],4.7 L
same,VSS,[2]; [11],14.0 L
same,thalf,[2]; [11],1.0 h
same,AUC cumul.,[2]; [12],5934 ng·h/mL and 4803 ng·h/mL and 2726 ng·h/mL and 4886 ng·h/mL and 2063 ng·h/mL and 2085 ng·h/mL and 1694 ng·h/mL and 1615 ng·h/mL
same,AUCinf,[2]; [12],1235 ng·h/mL and 884 ng·h/mL and 464 ng·h/mL and 1063 ng·h/mL and 349 ng·h/mL and 352 ng·h/mL and 291 ng·h/mL and 271 ng·h/mL
same,CL,[2]; [12],6.0 L/h and 5.6 L/h and 10.0 L/h and 5.7 L/h and 10.3 L/h and 17.9 L/h and 16.0 L/h and 16.3 L/h
same,V,[2]; [12],24.5 L and 11.8 L and 7.2 L and 34.1 L and 4.7 L and 14.5 L and 21.3 L and 5.1 L
same,VSS,[2]; [12],33.8 L and 21.1 L and 16.5 L and 43.4 L and 14.0 L and 23.8 L and 30.6 L and 14.4 L
same,thalf,[2]; [12],4.1 h and 2.8 h and 1.4 h and 5.4 h and 1.3 h and 1.2 h and 1.5 h and 1.0 h
same,Obs. AUCinf (based on weight),"[2]; Table 8, covariate model with Crea0, individual patient (ID 1-8)",291 and 271 and 1235 and 884 and 464 and 1063 and 349 and 352
same,AUC,[2]; [13],5905 ng·h/mL and 4813 ng·h/mL and 2712 ng·h/mL and 4896 ng·h/mL and 2060 ng·h/mL and 2061 ng·h/mL and 1705 ng·h/mL and 1636 ng·h/mL
same,AUCinf,[2]; [13],1227 ng·h/mL and 886 ng·h/mL and 462 ng·h/mL and 1067 ng·h/mL and 349 ng·h/mL and 348 ng·h/mL and 292 ng·h/mL and 274 ng·h/mL
same,CL,[2]; [13],6.0 L/h and 5.6 L/h and 10.1 L/h and 5.7 L/h and 10.3 L/h and 18.1 L/h and 15.9 L/h and 16.1 L/h
same,V,[2]; [13],24.5 L and 11.8 L and 7.3 L and 34.2 L and 4.7 L and 14.8 L and 21.1 L and 5.0 L
same,VSS,[2]; [13],33.8 L and 21.1 L and 16.5 L and 43.5 L and 14.0 L and 24.1 L and 30.4 L and 14.3 L
same,thalf,[2]; [13],4.1 h and 2.8 h and 1.4 h and 5.4 h and 1.3 h and 1.2 h and 1.5 h and 1.0 h
same,AUC,[2]; [14],5905 ng·h/mL
same,AUCinf,[2]; [14],1227 ng·h/mL
same,CL,[2]; [14],18.1 L/h
same,V,[2]; [14],34.2 L
same,VSS,[2]; [14],43.5 L
same,thalf,[2]; [14],5.4 h
same,AUC,[2]; [15],3224 ng·h/mL
same,AUCinf,[2]; [15],613 ng·h/mL
same,CL,[2]; [15],11.0 L/h
same,V,[2]; [15],15.4 L
same,VSS,[2]; [15],24.7 L
same,thalf,[2]; [15],2.3 h
same,AUC,[2]; [16],2387 ng·h/mL
same,AUCinf,[2]; [16],405 ng·h/mL
same,CL,[2]; [16],10.2 L/h
same,V,[2]; [16],13.3 L
same,VSS,[2]; [16],22.6 L
same,thalf,[2]; [16],1.5 h
same,AUC,[2]; [17],1636 ng·h/mL
same,AUCinf,[2]; [17],274 ng·h/mL
same,CL,[2]; [17],5.6 L/h
same,V,[2]; [17],4.7 L
same,VSS,[2]; [17],14.0 L
same,thalf,[2]; [17],1.0 h
same,Obs. AUCinf (based on weight),"[2]; Table 10, covariate model with eGFR, individual patient (ID 1-8)",292 and 274 and 1227 and 886 and 462 and 1067 and 349 and 348
same,Obs. AUCinf (based on weight),"[2]; Table 10, Max of 8 patients",1227
same,Obs. AUCinf (based on weight),"[2]; Table 10, Mean of 8 patients",613
same,Obs. AUCinf (based on weight),"[2]; Table 10, Median of 8 patients",405
same,Obs. AUCinf (based on weight),"[2]; Table 10, Min of 8 patients",274
same,influence of body weight on clearance,[2]; [18],not influenced by body weight
same,influence of body weight on volume,[2]; [18],influenced by body weight
same,influence of renal function on clearance,"[2]; renal function as Serum Creatinine or eGFR before treatment, exploratory covariate analysis",appears to be influenced be renal function
